Results: patent US6949250B2, “Selective algaecides for control of cyanochloronta” (The United States of America as represented by the …, priority 2002, dated 2005)

Tests used:
[1] = Detection of DNA1-19-1 in pond water samples; type: physicochemical; conditions: samples collected at and after 24 hours after application to water within limnocorrals
From the text: The attempts to develop a reproducible analytical method to determine the levels of DNA1-19-1 in the pond water were unsuccessful. DNA1-19-1 is believed to bind quickly to suspended soil particles due to the positively charged nature of the 2-methylamino chain; evident by the lack of detection of DNA1-19-1 in the water. Since the levels of suspended soil particles in each water sample varied and an accurate measurement of the soil particles present in each sample could not be obtained, the consistent recoveries of DNA1-19-1 from the particulate portions of water samples could not be achieved.

[2] = system: chlorophyll a; experiment: DNA1-19-1 first pond efficacy study (limnocorrals): chlorophyll a; type: in vivo; conditions: 2 μM, within 24 hours
[3] = system: O. perornata; experiment: DNA1-19-1 second and third pond efficacy studies: O. perornata filaments; type: in vivo, Oscillatoria perornata; conditions: second and third efficacy study; 1, 0.3, and 0.1 μM
Experimental: (§1) The method described by Schrader et al. (2000) was used to determine the potential for using the anthraquinone derivatives as selective algicides in catfish aquaculture ponds. All catfish ponds used in efficacy tests were maintained using commercial pond management practices and were located at the Thad Cochran Pond Facility, Mississippi State University, Stoneville, Miss. Anthraquinone analogs were dissolved in deionized water before application to water within the limnocorrals.
(§2) Limnocorrals in which test compound was applied to the enclosed water were randomly selected, and control (no test compound applied) limnocorrals were included in each efficacy study. For each sampling, two water samples (250 mL) were obtained from within each limnocorral (approximately 6-8 cm below the water surface and from opposite sides of each limnocorral) and mixed together in a 500 mL sample bottle to provide a representative sample of the water contained within the limnocorral.
(§3) In the second study with DNA1-19-1, twelve limnocorrals that were the same size as those used in the first study were placed in another 4-ha earthen catfish pond. […] The sampling regime and procedures used in the first study were followed in a similar manner, except that water samples were obtained before DNA1-19-1 application, 16 hours after application, and at days 2, 4, and 7. […]

[4] = system: 2-methylisoborneol; experiment: DNA1-19-1 first pond efficacy study (limnocorrals): MIB levels; type: in vivo; conditions: 2 μM
[5] = system: chlorophyll a; experiment: DNA1-19-1 second and third pond efficacy studies: chlorophyll a; type: in vivo; conditions: second and third efficacy study; 1, 0.3, and 0.1 μM
Experimental: as §1, §2, §3

[6] = system: 2-methylisoborneol; experiment: DNA1-19-1 second and third pond efficacy studies: MIB levels; type: in vivo; conditions: second and third efficacy study; 1, 0.3, and 0.1 μM
Experimental: as §1, §2, §3

[7] = system: geosmin; experiment: DNA2-59-1 first pond efficacy study: geosmin levels; type: in vivo; conditions: 1 μM
Experimental: as §1
(§4) Limnocorrals in which test compound was applied to the enclosed water were randomly selected, and control (no test compound applied) limnocorrals were included in each efficacy study. […]
(§5) In the first study, application rates of 0.1 μM (37.7 μg/L), 0.3 μM ([…]), and 1.0 μM (377 μg/L) of DNA2-59-1 were tested using limnocorrals (three replicates per concentration) that were of the same type used for testing DNA1-19-1. […] Water samples were also analyzed to determine the persistence of DNA2-59-1 in the pond water, and this analysis was performed by using high-pressure liquid chromatography (HPLC) (method and results are described later).

[8] = system: diatoms; experiment: DNA2-59-1 third pond efficacy study: diatom abundance; type: in vivo; conditions: 0.3 μM, from three days after application
Experimental: as §1, §2
(§6) For the third efficacy test with DNA2-59-1, twelve limnocorrals (2.44 m in diameter and 1.53 m high) were placed in a 4-ha earthen pond containing a bloom of O. perornata. […]

[9] = system: Raphidiopsis brookii; experiment: DNA2-59-1 second pond efficacy study: Raphidiopsis brookii abundance; type: in vivo; conditions: 0.3 μM, within three days of application
Experimental: as §1, §2
(§7) In the second efficacy test with DNA2-59-1, six limnocorrals (1.53 m in diameter and 1.53 m high) were placed in a 0.1-ha earthen pond containing a heavy bloom of O. perornata. The same delay in mixing the water within the limnocorrals used in the first efficacy study was utilized. Water within three randomly selected limnocorrals received an application rate of 0.3 μM DNA2-59-1, and the other three limnocorrals were controls. […]

[10] = system: chlorophyll a; experiment: DNA2-59-1 third pond efficacy study: chlorophyll a; type: in vivo; conditions: 0.3 μM, 24 hours after application
Experimental: as §1, §2, §6

[11] = system: Oscillatoria perornata; experiment: DNA2-59-1 first pond efficacy study: O. perornata abundance; type: in vivo; conditions: first study, 0.1, 0.3 and 1 μM
Experimental: as §1, §4, §5

[12] = system: Oscillatoria geminata; experiment: DNA2-59-1 second pond efficacy study: Oscillatoria geminata abundance; type: in vivo; conditions: 0.3 μM
Experimental: as §1, §2, §7

[13] = system: chlorophyll a; experiment: DNA2-59-1 second pond efficacy study: chlorophyll a; type: in vivo; conditions: 0.3 μM, for three days after application
Experimental: as §1, §2, §7

[14] = system: green algae; experiment: DNA2-59-1 second pond efficacy study: green algae abundance; type: in vivo; conditions: 0.3 μM
Experimental: as §1, §2, §7

[15] = system: Microcystis spp.; experiment: DNA2-59-1 third pond efficacy study: Microcystis spp. abundance; type: in vivo; conditions: 0.3 μM
Experimental: as §1, §2, §6

[16] = system: diatoms; experiment: DNA2-59-1 second pond efficacy study: diatom abundance; type: in vivo, diatoms (division Chromophyta, class Bacillariophyceae); conditions: 0.3 μM
Experimental: as §1, §2, §7

[17] = system: green algae; experiment: DNA2-59-1 first pond efficacy study: green algae abundance; type: in vivo; conditions: first study, 0.1, 0.3 and 1 μM
Experimental: as §1, §4, §5

## CCN(CC)CCCC(C)NCc1ccc2c(c1)C(=O)c1ccccc1C2=O.O=P(O)(O)O.O=P(O)(O)O (stereo not shown) [DNA1-19-1, 2-[methylamino-N-(1′-methyl-4′-N,N-diethylaminobutyl)]-9,10-anthraquinone diphosphate]
[1]
  detection in soluble fractions of water samples (result in words): could not be detected
[2]
  Chlorophyll a levels (result in words): decreased significantly
[3]
  numbers of O. perornata filaments compared to controls (result in words): lack of reduction
[4]
  Levels of MIB after reduction: ~970 ng/mL
  time MIB levels remained much lower than in the controls: 8 days
[4]; ng/mL (ppb)
  Levels of MIB before reduction: 15,250 ng/mL
[5]
  chlorophyll a levels compared to controls (result in words): lack of reduction
[6]
  2-methylisoborneol levels compared to controls (result in words): lack of reduction

## CC(C)NCc1ccc2c(c1)C(=O)c1ccccc1C2=O [DNA2-59-1, 2-[methylamino-N-(1′-methylethyl)]-9,10-anthraquinone monophosphate]
[7]
  decrease of geosmin levels compared to controls and 0.1 and 0.3 μM (result in words): to a greater degree and significantly more
[8]
  Numbers of diatoms vs control limnocorrals (result in words): significantly higher
[9]
  Numbers of Raphidiopsis brookii (result in words): significantly and dramatically reduced
[10]
  Chlorophyll a levels (result in words): significantly reduced
[11]
  numbers of O. perornata filaments compared to controls (result in words): significantly reduced
[12]
  Numbers of Oscillatoria geminata (result in words): reduced by application of 0.3 μM DNA2-59-1, though not significantly
[13]
  Chlorophyll a levels (result in words): significantly lower
[14]
  Green algae (result in words): not significantly affected
[15]
  Microcystis spp. compared to control limnocorrals (result in words): not greatly affected
[16]
  diatoms (result in words): not significantly affected
[17]
  Numbers of green algae compared to controls (result in words): not significantly affected
